Experimental data reported in patent US9593105B2, “Cyclic amines” (H. Lundbeck A/S, priority 2012, dated 2017).

Biological target: P2X7 receptor (Homo sapiens (Human), UniProt Q99572)
Assay: P2X7 FLIPR assay (BzATP-stimulated, Fluo-4 fluorescence) in stably transfected 293 HEK cells
Type: cell-based
Description: This example illustrates representative assays for use in evaluating the test compounds for antagonist activity. Compounds of the present invention were tested in vitro for their ability to act as antagonists to the P2X7 receptor.
Cells were plated to cell density of approximately 15,000 cells/well in 384-well assay plates (50 μl/well) with 1.5% low serum media (DMEM, 1.5% BCS, 1% L-glut (2 mM), 1% P/S).
Cells were plated to cell density of approximately 15,000 cells/well in 384-well assay plates (50 μl/well) with 1.5% low serum media (DMEM, 1.5% FBS, 1% L-glut (2 mM), 10 mM HEPES, 1% P/S). Cells were plated 24 hours prior to assay. Cells expressing human, rat or mouse P2X7 receptor were assayed in the following manner.
Fluo-4 NW dye mix (Molecular Probes, Inc., Eugene, Oreg., USA) was prepared in buffer (see manufacturer's instructions). Cell plates were removed from the 37° C. incubator, the media discarded and then 30 μL of dye was added to each well. Plates were placed in the 37° C., non-CO2 incubator for 30 minutes and then room temperature for 30 minutes.
Compound mixtures (A) were added to assay plates containing cells and placed at room temperature for 30 minutes, then BzATP (B) was added. Fluorescence was read using the Tetra FLIPR® (Molecular Devices, Inc., Sunnyvale, Calif., USA) and IC50 values were calculated by standard methods to determine antagonist activity.

P2X7 receptor, sequence (Q99572 whole entry): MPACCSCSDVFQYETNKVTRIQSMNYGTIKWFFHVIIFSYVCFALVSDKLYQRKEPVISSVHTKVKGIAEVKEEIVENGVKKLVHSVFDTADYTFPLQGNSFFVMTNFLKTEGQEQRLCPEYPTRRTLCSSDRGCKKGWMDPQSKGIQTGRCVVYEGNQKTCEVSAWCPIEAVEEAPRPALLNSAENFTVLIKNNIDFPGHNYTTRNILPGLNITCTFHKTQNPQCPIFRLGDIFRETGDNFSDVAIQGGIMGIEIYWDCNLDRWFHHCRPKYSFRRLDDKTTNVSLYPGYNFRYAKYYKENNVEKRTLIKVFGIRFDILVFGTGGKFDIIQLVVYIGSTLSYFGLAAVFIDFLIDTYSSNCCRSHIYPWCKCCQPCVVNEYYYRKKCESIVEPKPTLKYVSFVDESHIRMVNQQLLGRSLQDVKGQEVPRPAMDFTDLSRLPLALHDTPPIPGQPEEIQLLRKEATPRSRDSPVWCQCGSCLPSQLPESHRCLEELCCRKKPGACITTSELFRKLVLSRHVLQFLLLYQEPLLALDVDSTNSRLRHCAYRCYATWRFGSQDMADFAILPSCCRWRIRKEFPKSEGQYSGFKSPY

IC50 [nM]	Structure (SMILES)
5.8	O=C(NCC(c1cnc(C2CC2)nc1)N1CCC(F)(F)CC1)c1c(Cl)cccc1Cl (single isomer, unassigned; (-)) [(−)2,6-dichloro-N-[2-(2-cyclopropylpyrimidin-5-yl)-2-(4,4-di] [(−)2,6-dichloro-N-(2-(2-cyclopropylpyrimidin-5-yl)-2-(4,4-difluoropiperidin-1-yl)ethyl)benzamide]
4.3	COc1ccc(C(=O)NCC(c2cnc(C(F)(F)F)nc2)N2CCC(F)(F)CC2)c(Cl)c1 (single isomer, unassigned; (+)) [(+)2-chloro-N-[2-(4,4-difluoro-1-piperidyl)-2-[2-(trifluorom] [(+)2-chloro-4-methoxy-N-(2-(4,4-difluoropiperidin-1-yl)-2-(2-(trifluoromethyl)pyrimidin-5-yl)ethyl)benzamide]
